# Measured values from patent US9441012B2, “Fluorinated epoxyketone-based compounds and uses thereof as proteasome inhibitors” (FLUORINOV PHARMA INC., priority 2012, dated 2016).
# Key:
# [1] = system: AML2 mouse xenograft leukemia model; assay: Leukemia AML2 xenograft model; format: in vivo; details: 30 mg/kg oral gavage
# Method: Sublethally irradiated NOD-SCID mice bearing an established human tumor xenograft derived from RL and BALB/c mice challenged with the murine tumor cell line AML2 were treated twice weekly on days 1 and 2 (QD×2) with a dose of 30 mg/kg to 200 mg/kg of the compound of Example 1 by oral gavage. Dosing began on Day 6 post tumor challenge.
# [2] = target: purified beta proteasome subunits from Thermoplasma acidophilum; whole cell lysates from LP1 (Thermoplasma acidophilum, UniProt P28061); assay: Enzymatic activity of purified proteasomes (FIG. 1); format: biochemical, Thermoplasma acidophilum; human; details: compared to bortezomib
# Method: Purified beta proteasome subunits from the archaebacteria Thermoplasma acidophilum (A) or whole cell lysates from the human myeloma cell line LP1 (B).
# Increasing concentrations ([…]) of compounds of Formula (I) and bortezomib were incubated with […] purified beta subunits of proteasomes isolated from Thermoplasma acidophilum in assay buffer supplemented with 2 mM ATP. DMSO alone was used as a control. After 1 hour of incubation at 37° C., the Suc-Leu-Leu-Val-Tyr-AMC substrate was added at a final concentration of 40 μM and CT-L proteasome activity was measured as described above for tumor cell lysates.
# Purified beta proteasome subunits from the archaebacteria Thermoplasma acidophilum (A) and whole cell lysates from the human myeloma cell line LP1 (B) were used in the study.
# [3] = system: standard panel of 12 tumor cell lines; assay: Hollow fiber assay (HFA); format: in vivo, mouse; details: ip, 75 mg/kg/dose and 35.5 mg/kg/dose, QD x 4
# Method: Hollow fibre assay in vivo pharmacodynamic studies were carried out. This in vivo animal model uses semi-permeable biocompatible fibres that are filled with cancer cells, heat-sealed and implanted surgically (s.c. or i.p.) in mice or rats, which can then be treated with chemotherapeutics. Many different cell lines from different tissue origins and cellular characteristics can be encapsulated within the fibres, providing a cost-effective screening method.
# The Oncology Program Screening and Characterization Strategy group at NCI uses HFA, which provides quantitative indices of drug efficacy with minimal expenditures of time and materials. Thus, the HFA is being utilized as the initial in vivo experience for compounds of Formula I.
# A total of 3 different tumor lines are prepared for each experiment so that each mouse receives 3 intraperitoneal implants (1 of each tumor line) and 3 subcutaneous implants (1 of each tumor line). A compound is considered for xenograft testing if it produces cell kill of any cell line at either dose level evaluated, or it has a combined ip+sc score of 20 or greater, a sc score of 8 or greater. […]
# The compound of Example 1 was evaluated in an HFA assay via ip administration at two doses; a 75 mg/kg/dose and a 35.5 mg/kg/dose, QD […] 4. […]
# [4] = system: primary CD138+ myeloma cells; assay: Viability of primary patient samples (Annexin V, anti-CD138, flow cytometry); format: cell-based, human; details: 24 hours
# Method: (§1) Apoptosis was measured by staining cells treated with compounds of Formula I with annexin V-fluorescein isothiocyanate and propidium iodide (both from Biovision Research Products, Mountain View, Calif.) and flow cytometry according to manufacturer's instructions and as previously described [Blood. 2005, 105(10), 4043-4050]. Experiments were performed at least in duplicate and repeated at least twice (n=4-20 data points). Viable primary myeloma cells were identified by staining with phycoerythrin-conjugated mouse monoclonal anti-CD138 antibody (20 μL/[…] cells; Beckman Coulter, Brea, Calif.). The percentage of myeloma cells that were CD138 positive and annexin V negative after compounds of Formula (I) treatment compared with untreated samples was quantified as a marker of cell viability as previously described [Blood. 2007, 109(12), 5430-5438].
# (§2) Effects of a representative of compounds of Formula I (the compound of Example 1) on the viability of primary malignant and normal hematopoietic cells isolated from patient samples was also studied. […] Viability of normal hematopoietic cells (CD138−) and myeloma cells (CD138+) were measured by flow cytometry with PE-labeled anti-CD138 and FITC-labeled Annexin V co-staining. […]
# LP1 myeloma cells = assay: Combination assays: viability of myeloma LP1 cells (MTS, combination index); format: cell-based, human
# Method: To examine whether compounds of Formula I can be combined with other conventional and newer anti-multiple myeloma agents, such as dexamethasone and bortezomib, respectively, LP1 myeloma cells were treated for 72 hours with increasing concentrations of compounds of Formula I in combination with dexamethasone or bortezomib. After incubation, cell growth and viability was measured by the MTS assay. The combination index (CI) analysis, where a CI<1 indicates synergy between two drugs, a CI=1 indicates additivity, and a CI>1 indicates antagonism, was used to determine whether the cytotoxicity produced by the combinations with compounds of Formula I were synergistic, additive, or antagonistic.
# The effects of combining these agents with a representative of compounds of Formula I i.e. the compound of Example 1 on the viability of myeloma LP1 cells in culture were assessed. LP1 cells were treated for 72 hours with increasing concentrations of the compound of Example 1 in combination with dexamethasone or bortezomib. After incubation, cell growth and viability was measured by the MTS assay.
# The combination of the compound of Example 1 and bortezomib was synergistic with Combination Index values of 0.41, 0.46, and 0.88 at Fraction affected (Fa) levels of 0.39, 0.58, and 0.6, respectively (FIG. 2A).
# The combination of the compound of Example 1 and dexamethasone was synergistic with Combination Index values of 0.41, 0.44, and 0.5 at Fraction affected levels of 0.43, 0.5, and 0.64, respectively (FIG. 2B).
# EKVX = assay: NCI 60 human tumor cell line screen (SRB); format: cell-based; details: EKVX (Non-Small Cell Lung Cancer); 48 h
# [5] = system: normal mononuclear hematopoietic cells (CD138−); assay: Viability of primary patient samples (Annexin V, anti-CD138, flow cytometry); format: cell-based; details: 24 hours
# Method: as §1, §2
# purified beta proteasome subunits from Thermoplasma acidophilum; whole cell lysates from LP1, sequence (P28061 9-211): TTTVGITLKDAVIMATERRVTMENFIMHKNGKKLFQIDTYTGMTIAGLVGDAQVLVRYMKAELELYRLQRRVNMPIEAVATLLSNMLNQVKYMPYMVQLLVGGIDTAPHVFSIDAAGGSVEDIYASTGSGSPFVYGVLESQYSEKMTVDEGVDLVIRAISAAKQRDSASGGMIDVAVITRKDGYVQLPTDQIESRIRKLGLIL
# purified beta proteasome subunits from Thermoplasma acidophilum; whole cell lysates from LP1, sequence (P25156 whole entry partner): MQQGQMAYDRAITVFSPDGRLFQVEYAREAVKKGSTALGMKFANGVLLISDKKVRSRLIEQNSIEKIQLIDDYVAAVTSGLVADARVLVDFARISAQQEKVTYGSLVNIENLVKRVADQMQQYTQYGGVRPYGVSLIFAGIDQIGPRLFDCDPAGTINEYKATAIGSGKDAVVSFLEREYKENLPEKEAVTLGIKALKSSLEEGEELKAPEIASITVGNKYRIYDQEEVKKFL
compound,measurement,setting,value
"Cc1ncc(C(=O)N[C@@H](COC(F)F)C(=O)N[C@@H](COC(F)F)C(=O)N[C@@H](Cc2ccccc2)C(=O)[C@@]2(C)CO2)s1 [Example 1, 2-methyl-thiazole-5-carboxylic acid ((S)-1-{(S)-1-[(S)-1-benzyl-2-((R)-2-methyloxiranyl)-2-oxo-ethylcarbamoyl]-2-difluoromethoxyethylcarbamoyl}-2-difluoromethoxyethyl)-amide]",gross adverse effects including reductions in body weight or alterations in behaviour,[1],no observed gross adverse effects
same,tumor growth inhibition,[1]; twice weekly days 1 and 2 (QD×2),greater than 40%
same,effect on the enzymatic activity of purified proteasomes,[2],disrupts the ubiquitin-proteasome system
same,cell killing in hollow fiber assay,[3],produced cell killing of multiple cell lines
same,viability of primary CD138+ myeloma cells over CD138− normal hematopoietic cells,[4]; patient bone marrow or peripheral blood samples,selectively reduced the viability
same,cell death in the plasma cells of the myeloma patients,[4]; patient samples,nanomolar concentrations
same,Combination Index,"LP1 myeloma cells; combination with bortezomib, Fraction affected 0.39, LP1, 72 hours",0.41
same,Combination Index,"LP1 myeloma cells; combination with bortezomib, Fraction affected 0.58, LP1, 72 hours",0.46
same,Combination Index,"LP1 myeloma cells; combination with bortezomib, Fraction affected 0.6, LP1, 72 hours",0.88
same,Combination Index,"LP1 myeloma cells; combination with dexamethasone, Fraction affected 0.43, LP1, 72 hours",0.41
same,Combination Index,"LP1 myeloma cells; combination with dexamethasone, Fraction affected 0.5, LP1, 72 hours",0.44
same,Combination Index,"LP1 myeloma cells; combination with dexamethasone, Fraction affected 0.64, LP1, 72 hours",0.5
same,Log10GI50,EKVX,−6.22
same,Log10LC50,EKVX,>−4.00
same,Log10TGI50,EKVX,>−4.00
same,LD50 normal mononuclear hematopoietic cells,[5],> 2.5 µM
